The values that follow come from patent publication US12084445B2, “Broad-spectrum carbapenems” (VenatoRx Pharmaceuticals, Inc., priority 2018, dated 2024).

Each structure is given as a SMILES string. Where two headings read alike, the source gives them in different places.

Holding throughout (assay type): cell-based
The subject of one assay is S. aureus USA600. As to the kind of experiment: broth microdilution MIC assay, S. aureus USA 600. Conditions: Staphylococcus aureus; Table 4; S. aureus USA600; read-out: S. aureus USA600 MIC. The gist of the method:
(§1)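 MIC = lowest compound concentration with no visible growth after 16-20 h at 37 °C. Inoculum 5×10^5 CFU/mL from 3-5 h Mueller-Hinton broth cultures standardized by OD600; compounds tested as 2-fold serial dilutions per CLSI.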
Background: In broth dilution the organism is exposed to a series of concentrations in liquid medium.

For assay [1], the system named is P. aeruginosa PA 3 (a clinical isolate of reduced carbapenem susceptibility). Description: broth microdilution MIC assay, P. aeruginosa PA 3. Conditions: Pseudomonas aeruginosa; Table 5; P. aeruginosa PA3. On the procedure: (§2) To determine the ability of test compounds to potentiate the inhibition of the growth of bacterial strains, classic cell-based broth microdilution MIC assays were employed. MIC assays are performed according to CLSI methods except where otherwise noted (CLSI, 2011 and CLSI, 2009). The reference strains S. aureus ATCC 29213 (methicillin sensitive), S. aureus ATCC 33591 (methicillin-resistant), E. coli ATCC 25922 (wild-type/QC strain), P. aeruginosa ATCC 27853 (wild-type/QC strain), and the clinical isolate P. aeruginosa PA 8 were used to determine the ability of the exemplary carbapenem compounds to inhibit bacterial growth. An expanded panel of methicillin resistance S. aureus (MRSA) and Pseudomonas was also used to determine the ability of exemplary carbapenem compounds to inhibit bacterial growth across a broader representation of those species. To determine activity in MRSA and in addition to S. aureus ATCC 33591, S. aureus USA 300, USA 400 and USA 600, some of the most common clones found to cause human infection, were also used. To further gauge the impact on the carbapenem compounds due to various resistance mechanisms in Pseudomonas, the following strains were included: P. aeruginosa 35151 (hyper-permeable strain), P. aeruginosa AmexAB-OprM (an efflux pump knockout), and P. aeruginosa PA 3 (a clinical isolate of reduced carbapenem susceptibility). Briefly, cryo-preserved bacterial cultures of clinical strains are streaked for isolation on appropriate agar medium, in this case Mueller Hinton II agar. Following incubation to allow formation of colonies, these plates are sealed with parafilm and stored refrigerated for up to two weeks. For preparation of assay inocula and to ensure low variability, at least 5 colonies are picked from the agar plates with an inoculating loop and aseptically transferred to a culture tube containing 3 mL of Mueller-Hinton Broth (supplemented with divalent cations to required levels based on Manufacturers' specification). The broth culture is grown for 3-5 hours at 37° C. with shaking at 200 rpm. Meanwhile, 2-fold serial dilutions of test compounds are conducted in a 96 well plate with a final volume of 75 μL per well at 2-fold the final desired concentration. After the dilution plates are set up the growing cultures are then diluted in a cuvette containing MH II broth and the optical density is measured at 600 nm. Inocula are diluted such that 75 μL of this culture in Mueller-Hinton Broth results in a starting bacterial concentration of 5×10^5 CFU/mL when added to the dilution plates. The plates are incubated 16-20 hours at 37° C. The MIC is read visually as the lowest concentration well with no bacterial growth.
(§3) Representative results are shown in Tables 3, 4, and 5 where A represents an MIC>32 μg/mL, B represents an MIC between 8 and 32 μg/mL inclusive, C represents an MIC between 1 and 4 μg/mL inclusive, and D represents an MIC of <1 μg/mL. NT=Not Tested.

The test system of another assay is S. aureus USA400. As to the kind of experiment: broth microdilution MIC assay, S. aureus USA 400. Conditions: Staphylococcus aureus, Table 4. The protocol:
as §2, §3

Assay [2] has as its system P. aeruginosa ΔmexAB-OprM (an efflux pump knockout). Description: broth microdilution MIC assay, P. aeruginosa ΔmexAB-OprM. Conditions: Pseudomonas aeruginosa, 20 h, read-out: P. aeruginosa ΔmexAB-OprM MIC. The gist of the method:
as §1

The next assay deals with S. aureus USA 300. Description: broth microdilution MIC assay, S. aureus USA 300. Conditions: Staphylococcus aureus; Table 4; S. aureus USA300; read-out: S. aureus USA300 MIC. Put shortly:
as §1

Assay [3] deals with P. aeruginosa 35151 (hyper-permeable strain). Description: broth microdilution MIC assay, P. aeruginosa 35151. Conditions: Pseudomonas aeruginosa, read-out: P. aeruginosa 35151 MIC. Put shortly:
as §1

In assay [4] the test system is S. aureus ATCC 33591 (methicillin-resistant). Description: broth microdilution MIC assay, S. aureus ATCC 33591. Conditions: Staphylococcus aureus. Put shortly:
as §1

In assay [5] the test system is E. coli ATCC 25922 (wild-type/QC strain). Description: broth microdilution MIC assay, E. coli ATCC 25922. Conditions: Escherichia coli, ATCC25922, E. coli 25922, read-out: E. coli 25922 MIC. Put shortly:
as §1

The test system of assay [6] is S. aureus ATCC 29213 (methicillin sensitive). Description: broth microdilution MIC assay, S. aureus ATCC 29213. Conditions: Staphylococcus aureus, ATCC 29213 / MSSA; Table 3; S. aureus 29213 (MSSA); read-out: S. aureus 29213 (MSSA) MIC. On the procedure: as §2, §3
Assay [7] has as its system clinical isolate P. aeruginosa PA 8. Description: broth microdilution MIC assay, P. aeruginosa PA 8. Conditions: Pseudomonas aeruginosa, P. aeruginosa PA8. The gist of the method:
as §1

For assay [8], the system named is P. aeruginosa ATCC 27853 (wild-type/QC strain). Description: broth microdilution MIC assay, P. aeruginosa ATCC 27853. Conditions: Pseudomonas aeruginosa, ATCC27853, P. aeruginosa 27853, read-out: P. aeruginosa 27853 MIC. The gist of the method:
as §1

[9] abbreviates: ATCC 33591 / MRSA, Table 3, S. aureus 33591 (MRSA), read-out: S. aureus 33591 (MRSA) MIC.
The mark [10] stands for this setting: ATCC33591, Table 4, S. aureus 33591, read-out: S. aureus 33591 MIC.

One may read the MIC as the smallest concentration in the dilution series that meets the test's criterion for growth inhibition. `C[C@@H](O)[C@H]1C(=O)N2C(C(=O)O)=C(S[C@@H]3CCN(CC4CCN(C(=N)N)CC4)C3)[C@H](C)[C@H]12` [Example 35, (4R,5S,6S)-3-(((R)-1-((1-carbamimidoylpiperidin-4-yl)methyl)pyrrolidin-3-yl)thio)-6-((R)-1-hydroxyethyl)-4-methyl-7-oxo-1-azabicyclo[3.2.0]hept-2-ene-2-carboxylic acid]: the minimum inhibitory concentration (MIC) with S. aureus USA600 is less than 1 µg/mL; in [1] it was 8 to 32 µg/mL; in the assay on S. aureus USA400, 1 to 4 µg/mL; in [2] it was less than 1 µg/mL; in the assay on S. aureus USA 300, less than 1 µg/mL; in assay [3], less than 1 µg/mL. The minimum inhibitory concentration (MIC) in assay [4] (setting [9]) was 1 to 4 µg/mL; in [4] (setting [10]) it was 1 to 4 µg/mL; in assay [5] (Table 3), less than 1 µg/mL; in assay [5] (Table 4), less than 1 µg/mL; in assay [6] it was 1 to 4 µg/mL; in assay [7] (Table 3), 1 to 4 µg/mL. Further, the minimum inhibitory concentration (MIC) in assay [7] (Table 5), in assay [8] (Table 3) and in [8] (Table 5) was 1 to 4 µg/mL each time.
With `C[C@@H](O)[C@H]1C(=O)N2C(C(=O)O)=C(S[C@@H]3CCN(CCCN)C3)[C@H](C)[C@H]12` [Example 36, (4R,5S,6S)-3-(((R)-1-(3-aminopropyl)pyrrolidin-3-yl)thio)-6-((R)-1-hydroxyethyl)-4-methyl-7-oxo-1-azabicyclo[3.2.0]hept-2-ene-2-carboxylic acid], the MIC in [1] was greater than 32 µg/mL; in the assay with S. aureus USA400, 8 to 32 µg/mL; in the assay with S. aureus USA 300, 8 to 32 µg/mL; in assay [4] (setting [9]), greater than 32 µg/mL; in assay [4] (setting [10]) it was greater than 32 µg/mL; in assay [5] (Table 3) it was less than 1 µg/mL. Besides, the MIC in assay [5] (Table 4) is less than 1 µg/mL; in assay [7] (Table 3), 8 to 32 µg/mL; in assay [7] (Table 5) it was 8 to 32 µg/mL; in [8] (Table 3), 8 to 32 µg/mL; in assay [8] (Table 5), 8 to 32 µg/mL.
Regarding `CNCCCCN1CC[C@@H](SC2=C(C(=O)O)N3C(=O)[C@H]([C@@H](C)O)[C@H]3[C@H]2C)C1` [Example 37, (4R,5S,6S)-6-((R)-1-hydroxyethyl)-4-methyl-3-(((R)-1-(4-(methylamino)butyl)pyrrolidin-3-yl)thio)-7-oxo-1-azabicyclo[3.2.0]hept-2-ene-2-carboxylic acid], the minimal inhibitory concentration (MIC) is 8 to 32 µg/mL in assay [1]; 1 to 4 µg/mL with S. aureus USA400; 8 to 32 µg/mL in the assay with S. aureus USA 300; 8 to 32 µg/mL in assay [4] (setting [9]); 8 to 32 µg/mL in assay [4] (setting [10]); less than 1 µg/mL in assay [5] (Table 3). Further, the MIC was less than 1 µg/mL in [5] (Table 4); 8 to 32 µg/mL in assay [7] (Table 3); 1 to 4 µg/mL in assay [7] (Table 5); 1 to 4 µg/mL in assay [8] (Table 3); 1 to 4 µg/mL in assay [8] (Table 5).
`C[C@@H](O)[C@H]1C(=O)N2C(C(=O)O)=C(S[C@@H]3CCN(C4CCC(N)(CN)CC4)C3)[C@H](C)[C@H]12` (stereo partly drawn) [Example 38, (4R,5S,6S)-3-(((R)-1-(4-amino-4-(aminomethyl)cyclohexyl)pyrrolidin-3-yl)thio)-6-((R)-1-hydroxyethyl)-4-methyl-7-oxo-1-azabicyclo[3.2.0]hept-2-ene-2-carboxylic acid]: the MIC in assay [1] was 8 to 32 µg/mL; with S. aureus USA400, 1 to 4 µg/mL; in the assay with S. aureus USA 300, 8 to 32 µg/mL; in [4] (setting [9]) it was 8 to 32 µg/mL; in [4] (setting [10]), 8 to 32 µg/mL; in assay [5] (Table 3) it was less than 1 µg/mL. Also, the minimal inhibitory concentration (MIC) in assay [5] (Table 4) was less than 1 µg/mL; in [7] (Table 3) it was 8 to 32 µg/mL; in assay [7] (Table 5) it was 8 to 32 µg/mL; in [8] (Table 3), 8 to 32 µg/mL; in assay [8] (Table 5) it was 8 to 32 µg/mL.
Regarding `C[C@@H](O)[C@H]1C(=O)N2C(C(=O)O)=C(SC3CN(CC4CCNCC4)C3)[C@H](C)[C@H]12` [Example 42, (4R,5S,6S)-6-((R)-1-hydroxyethyl)-4-methyl-7-oxo-3-((1-(piperidin-4-ylmethyl)azetidin-3-yl)thio)-1-azabicyclo[3.2.0]hept-2-ene-2-carboxylic acid], the MIC in the assay with S. aureus USA600 was 1 to 4 µg/mL; in assay [1], 8 to 32 µg/mL; in the assay with S. aureus USA400 it was 1 to 4 µg/mL; in [2] it was 1 to 4 µg/mL; with S. aureus USA 300, 1 to 4 µg/mL; in assay [3], less than 1 µg/mL. The minimum inhibitory concentration (MIC) in assay [4] (setting [10]) was 1 to 4 µg/mL; in [5] (Table 4), less than 1 µg/mL; in assay [7] (Table 5), 1 to 4 µg/mL; in assay [8] (Table 5), 1 to 4 µg/mL.
Turning to `C[C@@H](O)[C@H]1C(=O)N2C(C(=O)O)=C(SC3CCN(CC4CCNCC4)CC3)[C@H](C)[C@H]12` [Example 44, (4R,5S,6S)-6-((R)-1-hydroxyethyl)-4-methyl-7-oxo-3-((1-(piperidin-4-ylmethyl)piperidin-4-yl)thio)-1-azabicyclo[3.2.0]hept-2-ene-2-carboxylic acid], the minimum inhibitory concentration (MIC) in assay [1] is 8 to 32 µg/mL; in the assay with S. aureus USA400, 1 to 4 µg/mL; in assay [2] it was 1 to 4 µg/mL; in the assay on S. aureus USA 300, 1 to 4 µg/mL; in [3], less than 1 µg/mL; in assay [4] (setting [10]), 8 to 32 µg/mL. The MIC was 1 to 4 µg/mL in assay [5] (Table 4), 8 to 32 µg/mL in assay [7] (Table 5) and 8 to 32 µg/mL in [8] (Table 5).
